Data as given in patent publication US20230348988A1, “DNA Damage Repair Deficit in Cancer Cells” (THE REGENTS OF THE UNIVERSITY OF CALIFORNIA, priority 2020, published 2023).

Columns and labels:
Format in all cases: cell-based
[1] = test system: SAS cells; test: Pulsed-field gel electrophoresis of residual DSB after irradiation
Description: Next it was sought to test whether TGFβ inhibition would increase alt-EJ in the context of NHEJ inhibition. Here pulsed-field gel electrophoresis was used to measure residual DSB levels in SAS cells at various timepoints after irradiation (20 Gy). NHEJ was blocked by treating cells with the DNA-protein kinase inhibitor KU57788 1 hour before irradiation and TGFβ signaling was blocked 24 hours beforehand with LY36494 pretreatment.

[2] = test system: SAS cells; test: NANOSTRING DDR gene panel expression in SAS cells; details: 24 h, TGFβ plus or minus inhibitor
Description: TGFβ regulates expression of DDR genes. To further investigate TGFβ impact on DDR, the expression of DNA repair-associated genes was evaluated using the NANOSTRING™ DDR gene panel. […] According to KEGG pathway analyses, expression of genes implicated in HR and NHEJ was increased by TGFβ and reduced by its inhibition. […] BRCA1 expression was increased by TGFβ and suppressed by LY2157299, as was ABL1 and POLD4. In contrast, TGFβ decreased and LY2157299 inhibition increased expression of LIG1, PARP1, and POLQ, which are key genes involved in alt-EJ.
(§1) Gene expression analyses methods: Total RNA was extracted. Sample RNA (250 ng) was used for the NANOSTRING™ DNA Damage Repair Gene Expression panel, consisting of 180 DDR genes and 12 housekeeping genes for normalization, according to manufacturer's instructions. Hybridization efficiency and background signals were evaluated based on internal positive and negative control probes analyzed using manufacturer's software. Ratio data from 2-3 biological repeats were used for further analysis and graphs.

[3] = test system: U251 human GBM cell line; test: Quantitative expression assays of alt-EJ genes in U251 cells; details: time course, TGFβ signaling blockade with LY2157299
Source text: The above observations led to the hypothesis that TGFβ suppression of alt-EJ gene expression is a distinct mechanism that influences differential DNA repair pathway use. To test whether this biology is broadly employed beyond HNSC, glioblastoma (GBM) was considered because high TGFβ ligand and receptor expression correlate with poorer survival, and because TGFβ inhibition enhances radiosensitivity in GBM cell lines and primary tumor explants. First, the U251 human GBM cell line was investigated using the NANOSTRING™ panel. As observed in HNSC SAS cells, TGFβ inhibition increased expression of the key alt-EJ genes, LIG1, PARP1, and POLQ in GBM cells. […] U251 reporters (EJ2GFP) were established to evaluate alt-EJ repair.
as §1

O=c1cc(N2CCOCC2)oc2c(-c3cccc4c3sc3ccccc34)cccc12 [KU57788]
repair of radiation induced DSB ([1]; KU57788 1 hour before irradiation (20 Gy)): significantly inhibited

c1ccc(-c2[nH]ncc2-c2ccnc3ccccc23)nc1 [LY36494]
rescue of KU57788-inhibited repair of radiation induced DSB ([1]; LY36494 pretreatment 24 hours beforehand, with KU57788, 20 Gy): partially rescued

Cc1cccc(-c2nn3c(c2-c2ccnc4ccc(C(N)=O)cc24)CCC3)n1 [LY2157299]
BRCA1 expression (as was ABL1 and POLD4) [2]: suppressed
TGFβ induction of CDKNJA [2]: blocked
expression of LIG1, PARP1, and POLQ [2]: increased
expression of LIG1, PARP1, and POLQ [3]: increased
